Reference: ChEMBL document CHEMBL2074493, “Reversal of multidrug resistance-associated protein-mediated drug resistance by the pyridine analog PAK-104P” (Mol Pharmacol, 1997)

Tests used:
[1] = biological target: T1, Multidrug resistance-associated protein 1 (Homo sapiens, UniProt P33527); experiment: TP_TRANSPORTER: increase in Vincristine intracellular accumulation (Vincristine: 1 uM, PAK-104P: 10 uM) in KB-3-1 and C-A120 cell; format: functional, cell-based; settings: kb-3-1;c-a120, 10 µM
[2] = biological target: T1, Multidrug resistance-associated protein 1; experiment: TP_TRANSPORTER: intracellular accumulation in KB-3-1 and C-A120 cells; format: functional, cell-based, KB-3-1; C-A120

T1 sequence (P33527 whole entry): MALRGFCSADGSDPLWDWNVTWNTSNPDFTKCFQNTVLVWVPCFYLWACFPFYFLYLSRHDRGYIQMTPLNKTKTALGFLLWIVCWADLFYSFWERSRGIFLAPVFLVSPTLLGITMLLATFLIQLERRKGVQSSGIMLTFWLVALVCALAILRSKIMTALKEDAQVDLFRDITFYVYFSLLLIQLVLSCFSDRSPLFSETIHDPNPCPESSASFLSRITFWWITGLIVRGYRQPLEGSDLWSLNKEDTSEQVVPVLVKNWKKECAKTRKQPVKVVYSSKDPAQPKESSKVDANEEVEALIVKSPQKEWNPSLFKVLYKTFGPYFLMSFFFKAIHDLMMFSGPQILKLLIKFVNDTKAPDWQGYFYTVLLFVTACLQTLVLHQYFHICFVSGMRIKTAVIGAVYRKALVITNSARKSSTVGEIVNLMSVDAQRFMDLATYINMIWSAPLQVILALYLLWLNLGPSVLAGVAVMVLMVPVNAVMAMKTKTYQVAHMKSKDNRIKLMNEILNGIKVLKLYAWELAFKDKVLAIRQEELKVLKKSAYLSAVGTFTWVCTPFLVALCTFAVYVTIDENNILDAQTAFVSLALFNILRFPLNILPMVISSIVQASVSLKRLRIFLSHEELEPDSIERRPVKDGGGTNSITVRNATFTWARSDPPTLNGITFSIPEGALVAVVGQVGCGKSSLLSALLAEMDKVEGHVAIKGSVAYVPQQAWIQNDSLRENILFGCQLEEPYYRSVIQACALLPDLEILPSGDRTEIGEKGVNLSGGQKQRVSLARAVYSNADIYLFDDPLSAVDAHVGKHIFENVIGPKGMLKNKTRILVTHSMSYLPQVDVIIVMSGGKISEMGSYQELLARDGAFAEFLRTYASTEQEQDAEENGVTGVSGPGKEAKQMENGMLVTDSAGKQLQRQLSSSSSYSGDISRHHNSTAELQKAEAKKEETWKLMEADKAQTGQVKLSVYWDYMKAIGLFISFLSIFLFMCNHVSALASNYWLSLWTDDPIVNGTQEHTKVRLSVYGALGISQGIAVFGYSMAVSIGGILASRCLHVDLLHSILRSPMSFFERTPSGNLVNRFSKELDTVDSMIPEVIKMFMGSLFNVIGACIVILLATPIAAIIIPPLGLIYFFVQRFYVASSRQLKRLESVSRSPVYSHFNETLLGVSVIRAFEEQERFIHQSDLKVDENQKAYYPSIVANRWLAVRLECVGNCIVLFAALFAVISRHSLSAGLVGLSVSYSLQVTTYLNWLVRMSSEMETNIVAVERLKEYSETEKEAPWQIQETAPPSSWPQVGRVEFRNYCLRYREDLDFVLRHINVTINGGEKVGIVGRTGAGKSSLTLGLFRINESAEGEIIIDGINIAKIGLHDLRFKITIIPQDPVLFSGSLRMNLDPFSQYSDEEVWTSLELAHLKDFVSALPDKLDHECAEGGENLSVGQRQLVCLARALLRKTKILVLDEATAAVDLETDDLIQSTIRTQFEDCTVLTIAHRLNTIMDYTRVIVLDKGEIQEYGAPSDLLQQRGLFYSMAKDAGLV

Activity [1] | Activity [2] | SMILES
inhibitor [1.3 to 1.7-fold] |  | Cc1nc(C)c(P2(=O)O[C@H](C)C[C@@H](C)O2)c(-c2cccc([N+](=O)[O-])c2)c1C(=O)OCCN1CCN(C(c2ccccc2)c2ccccc2)CC1 (some centres not stated)
 | substrate [+] | CC[C@]1(O)C[C@H]2CN(CCc3c([nH]c4ccccc34)[C@@](C(=O)OC)(c3cc4c(cc3OC)N(C=O)[C@H]3[C@@](O)(C(=O)OC)[C@H](OC(C)=O)[C@]5(CC)C=CCN6CC[C@]43[C@@H]65)C2)C1 [VINCRISTINE]
